Measurements from ChEMBL document CHEMBL1201862, “PubChem BioAssay data set” (2004).
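Dose response: 5 concentrations. Exposure: 48 h. Format: 96-well plates. Endpoint: linear interpolation; highest concentration if not reached. At the GI50, growth is halved.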 Active and inactive are the calls of the source. No stated cut-off is given here; in the data, active = GI50 up to about 1.1 µM and inactive = higher.

How the values were obtained:
Assay in all cases: inhibition of tumour cell growth, NCI panel, 48 h
CAKI-1 = test system: CAKI-1
RXF 393 = test system: RXF 393
OVCAR-8 = test system: OVCAR-8
HCT-15 = test system: HCT-15
UACC-62 = test system: UACC-62
T47D = test system: T47D
A549 = test system: A549
HOP-92 = test system: HOP-92
LOX IMVI = test system: LOX IMVI
U-251 = test system: U-251
HOP-62 = test system: HOP-62
MDA-N = test system: MDA-N
NCI/ADR-RES = test system: NCI/ADR-RES
HCT-116 = test system: HCT-116
NCI-H23 = test system: NCI-H23
Hs-578T = test system: Hs-578T
SK-MEL-28 = test system: SK-MEL-28
786-0 = test system: 786-0
SNB-19 = test system: SNB-19
BT-549 = test system: BT-549

Structure (SMILES) | GI50 (CAKI-1) | GI50 (RXF 393) | GI50 (OVCAR-8) | GI50 (HCT-15) | GI50 (UACC-62) | GI50 (T47D) | GI50 (A549) | GI50 (HOP-92) | GI50 (LOX IMVI) | GI50 (U-251) | GI50 (HOP-62) | GI50 (MDA-N) | GI50 (NCI/ADR-RES) | GI50 (HCT-116) | GI50 (NCI-H23) | GI50 (Hs-578T) | GI50 (SK-MEL-28) | GI50 (786-0) | GI50 (SNB-19) | GI50 (BT-549)
COc1ccc(C2OC(c3ccncc3)=NN2C)cc1OC (stereo unspecified) | 73.3 µM (inactive) | 93.5 µM (inactive) | > 100 µM (inactive) | > 100 µM | > 100 µM (inactive) | 67.1 µM (inactive) | > 100 µM (inactive) | 48.9 µM (inactive) | > 100 µM (inactive) | > 100 µM (inactive) | 94.6 µM (inactive) | > 100 µM (inactive) | > 100 µM (inactive) | > 100 µM (inactive) | > 100 µM (inactive) | 67 µM (inactive) | > 100 µM (inactive) | > 100 µM (inactive) | > 100 µM (inactive) | 
N#Cc1c(Cl)cccc1Oc1ccc(S(=O)(=O)/N=C(\NN)Nc2ccc(Cl)cc2)cc1 | 33.3 µM (inactive) | 19.1 µM (inactive) | 31.2 µM (inactive) | 34.4 µM | 19.1 µM (inactive) | 20.1 µM (inactive) | 31.9 µM (inactive) | 21.2 µM (inactive) | 17.5 µM (inactive) | 32 µM (inactive) | 21.1 µM (inactive) | 25.5 µM (inactive) | 32.9 µM (inactive) | 17.7 µM (inactive) | 24.3 µM (inactive) |  | 31.8 µM (inactive) | 23.8 µM (inactive) | 41.1 µM (inactive) | 25.1 µM (inactive)
C=C(C)[C@@H]1C[C@H]2O[C@](O)(C(=C)CC(=O)/C=C(/C)C[C@@H]3OC(=O)[C@]24O[C@@H]34)[C@H]1O | > 100 µM (inactive) | > 100 µM (inactive) | > 100 µM (inactive) | > 100 µM | > 100 µM (inactive) | > 100 µM (inactive) | > 100 µM (inactive) |  | > 100 µM (inactive) | > 100 µM (inactive) | > 100 µM (inactive) | > 100 µM (inactive) | > 100 µM (inactive) | > 100 µM (inactive) | > 100 µM (inactive) |  | > 100 µM (inactive) | > 100 µM (inactive) | > 100 µM (inactive) | > 100 µM (inactive)
CCOC(=O)C(=CNc1ccc(N(C2=NCC(C)S2)c2ccc(F)c(Cl)c2)cc1)C(=O)OCC (stereo unspecified) | 39.2 µM (inactive) | 6.05 µM (inactive) | 18.8 µM (inactive) | 18.8 µM |  | 13.9 µM (inactive) | 27 µM (inactive) | 18.1 µM (inactive) | 16.8 µM (inactive) | 20.8 µM (inactive) | 21.1 µM (inactive) | 21.2 µM (inactive) | 17.1 µM (inactive) | 16 µM (inactive) | 17.5 µM (inactive) | 22.8 µM (inactive) | 18.7 µM (inactive) | 16.2 µM (inactive) | 21.8 µM (inactive) | 
CC(=O)N1CN2C(=O)CCC2c2ccccc21 (stereo unspecified) | > 100 µM (inactive) | > 100 µM (inactive) | > 100 µM (inactive) | > 100 µM | > 100 µM (inactive) | > 100 µM (inactive) | > 100 µM (inactive) | > 100 µM (inactive) | > 100 µM (inactive) | > 100 µM (inactive) | > 100 µM (inactive) | > 100 µM (inactive) | > 100 µM (inactive) | > 100 µM (inactive) | > 100 µM (inactive) | > 100 µM (inactive) | > 100 µM (inactive) | > 100 µM (inactive) | > 100 µM (inactive) | 
C[n+]1cccc2ccc(OC(=O)c3ccccc3)cc21 | > 100 µM (inactive) | > 100 µM (inactive) | > 100 µM (inactive) | > 100 µM | > 100 µM (inactive) | > 100 µM (inactive) | > 100 µM (inactive) | > 100 µM (inactive) | > 100 µM (inactive) |  | > 100 µM (inactive) | > 100 µM (inactive) | > 100 µM (inactive) | > 100 µM (inactive) | > 100 µM (inactive) | > 100 µM (inactive) |  | > 100 µM (inactive) | > 100 µM (inactive) | 
NC(=O)C(=O)n1ncc(Cl)c(Cl)c1=O | 22.8 µM (inactive) | > 23.5 µM (inactive) | 24.2 µM (inactive) | > 46.9 µM | 31.5 µM (inactive) | > 100 µM (inactive) | > 67.8 µM (inactive) | > 42.3 µM (inactive) | 22.4 µM (inactive) | > 40.7 µM (inactive) | > 100 µM (inactive) | > 100 µM (inactive) | 24.4 µM (inactive) | 29.1 µM (inactive) | 32.7 µM (inactive) | > 100 µM (inactive) | 23.5 µM (inactive) | 22.2 µM (inactive) | > 79.3 µM (inactive) | 
CCC(C)N1CN(c2ccccc2)C2(CCN(CC3COc4ccccc4O3)CC2)C1=O (stereo unspecified) | 16.9 µM (inactive) | 20.9 µM (inactive) | 26.2 µM (inactive) | 19.7 µM | 19 µM (inactive) | 16 µM (inactive) | 28.7 µM (inactive) |  | 23.4 µM (inactive) | 17.7 µM (inactive) | 19.4 µM (inactive) | 25.6 µM (inactive) | 17.8 µM (inactive) | 15.9 µM (inactive) | 22.9 µM (inactive) |  | 39.7 µM (inactive) | 18 µM (inactive) | 23.7 µM (inactive) | 14.3 µM (inactive)
Clc1ccc(C2ON=C(c3ccccc3)N2C23CC4CC(CC(C4)C2)C3)c(Cl)c1 (stereo unspecified) | > 10 µM (inactive) | > 10 µM (inactive) | > 10 µM (inactive) | > 10 µM | > 10 µM (inactive) | > 10 µM (inactive) | > 10 µM (inactive) | > 10 µM (inactive) | > 10 µM (inactive) | > 10 µM (inactive) | > 10 µM (inactive) | > 10 µM (inactive) | > 10 µM (inactive) | > 10 µM (inactive) | > 10 µM (inactive) | > 10 µM (inactive) | > 10 µM (inactive) | > 10 µM (inactive) | > 10 µM (inactive) | 
N#CC(C#N)=CNC(=S)Nc1ccc(S(=O)(=O)Nc2nccs2)cc1 | > 100 µM (inactive) | > 100 µM (inactive) | > 100 µM (inactive) | > 100 µM | > 100 µM (inactive) | > 100 µM (inactive) | > 100 µM (inactive) | > 100 µM (inactive) | > 100 µM (inactive) | > 100 µM (inactive) | > 100 µM (inactive) | > 100 µM (inactive) | > 100 µM (inactive) | > 100 µM (inactive) | > 100 µM (inactive) |  | > 100 µM (inactive) | > 100 µM (inactive) | > 100 µM (inactive) | > 100 µM (inactive)
COC(=O)c1ccc(OCCn2nnc(C(=O)NN)c2C(=O)NN)cc1 | > 100 µM (inactive) |  | > 100 µM (inactive) | > 100 µM |  |  | > 100 µM (inactive) | > 100 µM (inactive) | > 100 µM (inactive) | > 100 µM (inactive) | > 100 µM (inactive) | > 100 µM (inactive) | > 100 µM (inactive) | > 100 µM (inactive) | > 100 µM (inactive) |  | > 100 µM (inactive) | > 100 µM (inactive) | > 100 µM (inactive) | > 100 µM (inactive)
